Source: the NIST ThermoML archive (doi:10.1021/je100237h)

Conditions: Liquid; for viscosity: 101.33 kPa, Concentric cylinders viscometry; for mass density: Vibrating tube method

CCOC(=O)CCCCC(=O)OCC [diethyl hexanedioate]
Conditions | viscosity [mPa·s]
283.15 K | 4.57
288.15 K | 3.99
293.15 K | 3.51
298.15 K | 3.12
303.15 K | 2.79
308.15 K | 2.51
313.15 K | 2.28
318.15 K | 2.07
323.15 K | 1.9
328.15 K | 1.75
333.15 K | 1.61
338.15 K | 1.49
343.15 K | 1.39
348.15 K | 1.29
353.15 K | 1.21
358.15 K | 1.13
363.15 K | 1.06
368.15 K | 1
373.15 K | 0.94

CC(C)COC(=O)CCCCC(=O)OCC(C)C [diisobutyl adipate]
Conditions | viscosity [mPa·s]
283.15 K | 8.56
288.15 K | 7.22
293.15 K | 6.17
298.15 K | 5.33
303.15 K | 4.65
308.15 K | 4.09
313.15 K | 3.63
318.15 K | 3.24
323.15 K | 2.92
328.15 K | 2.64
333.15 K | 2.4
338.15 K | 2.19
343.15 K | 2.01
348.15 K | 1.85
353.15 K | 1.71
358.15 K | 1.59
363.15 K | 1.48
368.15 K | 1.38
373.15 K | 1.29

Conditions | mass density [kg/m3]
293.15 K, 100 kPa | 951.7
293.15 K, 10000 kPa | 958.4
293.15 K, 20000 kPa | 964.7
293.15 K, 30000 kPa | 970.6
293.15 K, 40000 kPa | 976.1
293.15 K, 50000 kPa | 981.4
293.15 K, 60000 kPa | 986.4
293.15 K, 70000 kPa | 991.2
293.15 K, 80000 kPa | 995.9
293.15 K, 90000 kPa | 1000.3
293.15 K, 100000 kPa | 1004.7
293.15 K, 110000 kPa | 1008.7
293.15 K, 120000 kPa | 1012.7
293.15 K, 130000 kPa | 1016.6
293.15 K, 140000 kPa | 1020.3
303.15 K, 100 kPa | 942.8
303.15 K, 10000 kPa | 949.9
303.15 K, 20000 kPa | 956.4
303.15 K, 30000 kPa | 962.6
303.15 K, 40000 kPa | 968.3
303.15 K, 50000 kPa | 974
303.15 K, 60000 kPa | 979.1
303.15 K, 70000 kPa | 984.2
303.15 K, 80000 kPa | 989
303.15 K, 90000 kPa | 993.4
303.15 K, 100000 kPa | 997.8
303.15 K, 110000 kPa | 1002.1
303.15 K, 120000 kPa | 1006.3
303.15 K, 130000 kPa | 1010.3
303.15 K, 140000 kPa | 1014
313.15 K, 100 kPa | 934.2
313.15 K, 10000 kPa | 941.6
313.15 K, 20000 kPa | 948.5
313.15 K, 30000 kPa | 954.9
313.15 K, 40000 kPa | 960.9
313.15 K, 50000 kPa | 966.6
313.15 K, 60000 kPa | 972.1
313.15 K, 70000 kPa | 977.2
313.15 K, 80000 kPa | 982
313.15 K, 90000 kPa | 986.7
313.15 K, 100000 kPa | 991.2
313.15 K, 110000 kPa | 995.6
313.15 K, 120000 kPa | 999.9
313.15 K, 130000 kPa | 1003.9
313.15 K, 140000 kPa | 1007.9
323.15 K, 100 kPa | 925.6
323.15 K, 10000 kPa | 933.4
323.15 K, 20000 kPa | 940.5
323.15 K, 30000 kPa | 947.3
323.15 K, 40000 kPa | 953.7
323.15 K, 50000 kPa | 959.7
323.15 K, 60000 kPa | 965.2
323.15 K, 70000 kPa | 970.6
323.15 K, 80000 kPa | 975.6
323.15 K, 90000 kPa | 980.5
323.15 K, 100000 kPa | 985.3
323.15 K, 110000 kPa | 989.8
323.15 K, 120000 kPa | 994.2
323.15 K, 130000 kPa | 998.3
323.15 K, 140000 kPa | 1003
333.15 K, 100 kPa | 916.7
333.15 K, 10000 kPa | 924.9
333.15 K, 20000 kPa | 932.4
333.15 K, 30000 kPa | 939.3
333.15 K, 40000 kPa | 945.8
333.15 K, 50000 kPa | 952
333.15 K, 60000 kPa | 957.8
333.15 K, 70000 kPa | 963.3
333.15 K, 80000 kPa | 968.5
333.15 K, 90000 kPa | 973.4
333.15 K, 100000 kPa | 978.2
333.15 K, 110000 kPa | 982.8
333.15 K, 120000 kPa | 987.3
333.15 K, 130000 kPa | 991.6
333.15 K, 140000 kPa | 995.7
343.15 K, 100 kPa | 908.1
343.15 K, 10000 kPa | 916.3
343.15 K, 20000 kPa | 924.3
343.15 K, 30000 kPa | 931.5
343.15 K, 40000 kPa | 938.3
343.15 K, 50000 kPa | 944.7
343.15 K, 60000 kPa | 950.8
343.15 K, 70000 kPa | 956.3
343.15 K, 80000 kPa | 961.8
343.15 K, 90000 kPa | 967
343.15 K, 100000 kPa | 971.8
343.15 K, 110000 kPa | 976.5
343.15 K, 120000 kPa | 981.1
343.15 K, 130000 kPa | 985.5
343.15 K, 140000 kPa | 989.7
353.15 K, 100 kPa | 899.3
353.15 K, 10000 kPa | 908
353.15 K, 20000 kPa | 916.2
353.15 K, 30000 kPa | 923.7
353.15 K, 40000 kPa | 930.9
353.15 K, 50000 kPa | 937.7
353.15 K, 60000 kPa | 943.9
353.15 K, 70000 kPa | 950
353.15 K, 80000 kPa | 955.5
353.15 K, 90000 kPa | 960.8
353.15 K, 100000 kPa | 965.7
353.15 K, 110000 kPa | 970.5
353.15 K, 120000 kPa | 974.9
353.15 K, 130000 kPa | 979.5
353.15 K, 140000 kPa | 983.7
363.15 K, 100 kPa | 890.2
363.15 K, 10000 kPa | 899.9
363.15 K, 20000 kPa | 908.7
363.15 K, 30000 kPa | 916.4
363.15 K, 40000 kPa | 923.7
363.15 K, 50000 kPa | 930.4
363.15 K, 60000 kPa | 936.9
363.15 K, 70000 kPa | 943.2
363.15 K, 80000 kPa | 948.9
363.15 K, 90000 kPa | 954.1
363.15 K, 100000 kPa | 959.4
363.15 K, 110000 kPa | 964.4
363.15 K, 120000 kPa | 969
363.15 K, 130000 kPa | 973.7
363.15 K, 140000 kPa | 978.1
373.15 K, 100 kPa | 882.3
373.15 K, 10000 kPa | 891.5
373.15 K, 20000 kPa | 900.5
373.15 K, 30000 kPa | 908.6
373.15 K, 40000 kPa | 916.5
373.15 K, 50000 kPa | 923.3
373.15 K, 60000 kPa | 930.1
373.15 K, 70000 kPa | 936.4
373.15 K, 80000 kPa | 942.2
373.15 K, 90000 kPa | 947.8
373.15 K, 100000 kPa | 953.2
373.15 K, 110000 kPa | 958.2
373.15 K, 120000 kPa | 963.2
373.15 K, 130000 kPa | 967.8
373.15 K, 140000 kPa | 972.5
383.15 K, 100 kPa | 873.2
383.15 K, 10000 kPa | 883.6
383.15 K, 20000 kPa | 893.1
383.15 K, 30000 kPa | 901.7
383.15 K, 40000 kPa | 909.6
383.15 K, 50000 kPa | 916.6
383.15 K, 60000 kPa | 923.5
383.15 K, 70000 kPa | 929.4
383.15 K, 80000 kPa | 935.7
383.15 K, 90000 kPa | 941.2
383.15 K, 100000 kPa | 946.7
383.15 K, 110000 kPa | 951.8
383.15 K, 120000 kPa | 957
383.15 K, 130000 kPa | 961.5
383.15 K, 140000 kPa | 966.1
393.15 K, 100 kPa | 864.7
393.15 K, 10000 kPa | 875.3
393.15 K, 20000 kPa | 885.1
393.15 K, 30000 kPa | 893.9
393.15 K, 40000 kPa | 902.1
393.15 K, 50000 kPa | 909.5
393.15 K, 60000 kPa | 916.6
393.15 K, 70000 kPa | 923.2
393.15 K, 80000 kPa | 929.5
393.15 K, 90000 kPa | 935.3
393.15 K, 100000 kPa | 941.1
393.15 K, 110000 kPa | 946.2
393.15 K, 120000 kPa | 951.4
393.15 K, 130000 kPa | 956.3
393.15 K, 140000 kPa | 960.9
403.15 K, 100 kPa | 856.8
403.15 K, 10000 kPa | 867.3
403.15 K, 20000 kPa | 877.3
403.15 K, 30000 kPa | 886.5
403.15 K, 40000 kPa | 894.8
403.15 K, 50000 kPa | 902.7
403.15 K, 60000 kPa | 909.9
403.15 K, 70000 kPa | 916.6
403.15 K, 80000 kPa | 923.3
403.15 K, 90000 kPa | 929.4
403.15 K, 100000 kPa | 935
403.15 K, 110000 kPa | 940.3
403.15 K, 120000 kPa | 945.5
403.15 K, 130000 kPa | 950.6
403.15 K, 140000 kPa | 955.4
